Experiment: log P determination by reversed-phase HPLC (EEC Directive 79/831 Annex V.A8; acidic or neutral mobile phase)
Assay type: physicochemical
Details: HPLC, reversed-phase C18, 43° C.; acidic range a): 0.1% aqueous phosphoric acid, acetonitrile, linear gradient 10% to 90% acetonitrile
Outline: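 Values marked a) used an acidic eluent of 0.1% aqueous phosphoric acid, those marked b) a neutral eluent of 0.01 molar phosphate buffer, each with acetonitrile rising linearly from 10% to 90%. Column C18 at 43° C, following EEC Directive 79/831 Annex V.A8.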

SMILES	logP
CCN(Cc1c(S(C)(=O)=O)ccc(C(=O)C2C(=O)CC(C)CC2=O)c1Cl)S(C)(=O)=O (stereo not drawn) [Example 475]	(I-2) logP = 2.32^a)
COc1c(C(=O)C2C(=O)CC(C)CC2=O)ccc(Cl)c1CN(C)S(C)(=O)=O (stereo not drawn) [Example 476]	(I-2) logP = 2.56^a)
COc1c(C(=O)C2C(=O)CCCC2=O)ccc(Cl)c1CN(C)OC [Example 477]	logP = 2.63^a)
COc1c(C(=O)c2cnn(C)c2O)ccc(Cl)c1CN(C)OC [Example 478]	logP = 1.90^a)
CCn1ncc(C(=O)c2ccc(Cl)c(CN(C)OC)c2OC)c1O [Example 479]	logP = 2.35^a)
CCN(Cc1c(Cl)ccc(C(=O)c2cnn(C)c2O)c1Cl)OC [Example 480]	logP = 2.46^a)
CCN(Cc1c(Cl)ccc(C(=O)C2C(=O)CCC(C)(C)C2=O)c1Cl)OC (stereo not drawn) [Example 481]	(I-2) logP = 4.95^a)
COc1c(C(=O)C2C(=O)CC(C)CC2=O)ccc(Cl)c1CN(C)OC (stereo not drawn) [Example 482]	(I-2) logP = 3.09^a)
CCN(Cc1c(Cl)ccc(C(=O)C2C(=O)CCCC2=O)c1OC)OC [Example 483]	logP = 3.19^a)
CCN(Cc1c(Cl)ccc(C(=O)C2C(=O)CCC(C)(C)C2=O)c1OC)OC (stereo not drawn) [Example 484]	(I-2) logP = 2.30^a)
CCN(Cc1c(Cl)ccc(C(=O)c2cnn(CC)c2O)c1OC)OC [Example 485]	logP = 2.97^a)
CCN(Cc1c(Cl)ccc(C(=O)c2cnn(C)c2O)c1OC)OC [Example 486]	logP = 2.44^a)

Same assay, conditions: HPLC, reversed-phase C 18, 43° C.; acidic range: 0.1% aqueous phosphoric acid, acetonitrile (marked a) or acidic)

SMILES	log P (acidic)
CONCc1c(S(C)(=O)=O)ccc(C(=O)OC)c1Cl [VIII-21]	logPacidic = 1.69
COC(=O)c1ccc(S(C)(=O)=O)c(CN(C)OC)c1Cl [VIII-22]	logPacidic = 2.31
CCN(Cc1c(S(C)(=O)=O)ccc(C(=O)OC)c1Cl)OC [VIII-23]	logPacidic = 2.74
COC(=O)c1ccc(S(C)(=O)=O)c(CN(Cc2ccccc2)OC)c1Cl [VIII-24]	logPacidic = 3.42
COC(=O)c1ccc(S(C)(=O)=O)c(CN(OC)C(C)C)c1Cl [VIII-25]	logPacidic = 3.13
COC(=O)c1ccc(Cl)c(OCCNS(C)(=O)=O)c1C [VIII-26]	logPacidic = 2.14
CCS(=O)(=O)NCCOc1c(Cl)ccc(C(=O)OC)c1C [VIII-27]	logPacidic = 2.37
COC(=O)c1ccc(Br)c(OCCNS(C)(=O)=O)c1C [VIII-28]	logPacidic = 2.20
CCS(=O)(=O)NCCOc1c(Br)ccc(C(=O)OC)c1C [VIII-29]	logPacidic = 2.46
COC(=O)c1ccc(S(C)(=O)=O)c(OCCNS(C)(=O)=O)c1Cl [VIII-30]	logPacidic = 1.56
CCS(=O)(=O)NCCOc1c(S(C)(=O)=O)ccc(C(=O)OC)c1Cl [VIII-31]	logPacidic = 1.75
COC(=O)c1ccc(Br)c(OCCNS(C)(=O)=O)c1Br [VIII-32]	logPacidic = 2.13
COC(=O)c1ccc(S(C)(=O)=O)c(CN(C)OCC2CC2)c1Cl [VIII-33]	logPacidic = 2.98
COC(=O)c1ccc(S(C)(=O)=O)c(CN(CC2CC2)OC)c1Cl [VIII-34]	logPacidic = 3.18
C=CCN(Cc1c(S(C)(=O)=O)ccc(C(=O)OC)c1Cl)OC [VIII-35]	logPacidic = 2.87
CCN(CC)C(=O)CN(Cc1c(S(C)(=O)=O)ccc(C(=O)OC)c1Cl)OC [VIII-36]	logPacidic = 2.28
COC(=O)c1ccc(S(C)(=O)=O)c(CN(OC)C(C)C2CC2)c1Cl (stereo not drawn) [VIII-37]	logPacidic = 3.58
COC(=O)c1ccc(S(C)(=O)=O)c(CN(OC)C2CCCC2)c1Cl [VIII-38]	logPacidic = 3.67
COC(=O)c1ccc(S(C)(=O)=O)c(CN(OC)C(C)=O)c1Cl [VIII-39]	logPacidic = 1.58
COC(=O)c1ccc(S(C)(=O)=O)c(CN(OC)C2CCSCC2)c1Cl [VIII-40]	logPacidic = 3.20

Same assay, conditions: HPLC, reversed-phase C 18, 43° C.; mobile phase range not marked

SMILES	log P
COC(=O)c1ccc(S(C)(=O)=O)c(CNN2CCNC2=O)c1Cl [VIII-5]	logP = 1.24
CONCc1c(Cl)ccc(C(=O)OC)c1Cl [VIII-6]	logP = 2.26
CCONCc1c(Cl)ccc(C(=O)OC)c1Cl [VIII-7]	logP = 2.77
COC(=O)c1ccc(Cl)c(CN(C)OC)c1Cl [VIII-8]	logP = 3.08
CCN(Cc1c(Cl)ccc(C(=O)OC)c1Cl)OC [VIII-9]	logP = 3.72
CONCc1c(S(C)(=O)=O)ccc(C(=O)OC)c1Cl [VIII-10]	logP = 1.69
CCONCc1c(S(C)(=O)=O)ccc(C(=O)OC)c1Cl [VIII-11]	logP = 2.05
CCON(CC)Cc1c(S(C)(=O)=O)ccc(C(=O)OC)c1Cl [VIII-12]	logP = 3.06
CCONCc1c(Cl)ccc(C(=O)OC)c1OC [VIII-13]	logP = 2.27
CCOC(=O)c1ccc(Cl)c(OCCNS(C)(=O)=O)c1Cl [VIII-14]	logP = 2.24
CCOC(=O)c1ccc(Cl)c(OCCNS(=O)(=O)CC)c1Cl [VIII-15]	logP = 2.61
CCOC(=O)c1ccc(Cl)c(OCCNS(=O)(=O)CCl)c1Cl [VIII-16]	logP = 2.80
CCOC(=O)c1ccc(Cl)c(OCCNS(=O)(=O)CC(F)(F)F)c1Cl [VIII-17]	logP = 3.08
CCOC(=O)c1ccc(Cl)c(OCCNS(=O)(=O)c2cccs2)c1Cl [VIII-18]	logP = 3.20
CCCS(=O)(=O)NCCOc1c(Cl)ccc(C(=O)OCC)c1Cl [VIII-19]	logP = 2.92
CCOC(=O)c1ccc(Cl)c(OCCNS(=O)(=O)C(C)C)c1Cl [VIII-20]	logP = 2.86

Same assay, conditions: reversed-phase C18 HPLC column; HPLC, reversed-phase C 18, 43° C.; acidic range: 0.1% aqueous phosphoric acid, acetonitrile (marked a) or acidic); read-out: log P (acidic)

SMILES	chromatographic logP
CON(Cc1c(S(C)(=O)=O)ccc(C(=O)O)c1Cl)C(C)C [II-3, 2-chloro-4-methylsulphonyl-3-(N-methoxy-N-(1-methylethyl)aminomethyl)benzoic acid]	2.09
COC(=O)c1ccc(S(C)(=O)=O)c(CN(OC)C(C)C)c1Cl [VIII-3]	3.13

Same assay, conditions: reversed-phase C18 HPLC column; HPLC, reversed-phase C 18, 43° C.; mobile phase range not marked; read-out: log P

SMILES	chromatographic logP
CON(C)Cc1c(Cl)ccc(C(=O)O)c1Cl [II-1, 2,4-dichloro-3-(N-methoxy-N-methylaminomethyl)benzoic acid]	1.99
CS(=O)(=O)NCCOc1c(Cl)ccc(C(=O)O)c1Cl [II-2, 2,4-dichloro-3-(2-methylsulphonylaminoethoxy)benzoic acid]	1.36
COC(=O)c1ccc(Cl)c(CN(C)OC)c1Cl [VIII-1, methyl 2,4-dichloro-3-(N-methoxy-N-methylaminomethyl)benzoate]	3.08
CCOC(=O)c1ccc(Cl)c(OCCNS(C)(=O)=O)c1Cl [VIII-2, ethyl 2,4-dichloro-3-(2-methylsulphonylaminoethoxy)benzoate]	2.35
